Data reported in patent US20030086947A1, “Vaccine against papillomatous digital dermatitis (PDD)” (TOWNSEND AND TOWNSEND AND CREW, priority 1997, published 2003).

Columns and labels:
[1] = tested on: lesions of papillomatous digital dermatitis (PDD); assay: Effect of various treatments on lesions of papillomatous digital dermatitis in Holstein cows; format: in vivo; details: for No. of cows assessed: Responded / No. of lesions assessed: Responded: complete therapeutic response, assessed at post-treatment days 7, 14 and 21, herds 5 to 7; for Mean therapeutic response time: determined by desiccation and keratinization of surfaces and absence of pain
Method: (§1) The effect of various treatments was assessed on a total of 72 lesions of PDD in 35 cows in […] (herds 4 and 5-7). Treatments consisted of procaine penicillin G (G. C. Hanford Manufacturing Co., Syracuse, N.Y.), 18,000 units/kg IM BID for 3 days (7 cows); ceftiofur sodium (Naxcel®, The Upjohn Co., Kalamazoo, Mich.), 2 mg/kg daily for 3 days (14 cows); oxytetracycline (Terramycin—343®Pfizer Animal Health, N.Y.), single topical application of approximately 5 g of soluble powder bandaged directly onto a clean lesion for 7 days (3 cows); formadelhyde (Fisher Scientific, Pittsburg, Pa.), 39% v/v, single topical application (5 cows); hydrochloric acid (Fisher Scientific, Pittsburg, Pa.), 36% v/v, single topical application (4 cows); surgical excision (4 cows); and chlorodifluoromethane, dimethylether (Brand Spray, Stockman Products Ltd., Castledown, Isle of Man, UK), 2 minutes of topical cryogenic spray until lesion and margin were frozen solid and white (1 cow). Two cows which received no, treatment served as untreated controls. Therapeutic response was assessed at post treatment days: 7 (4 cows), 7 and 14 (23 cows) and 7, 14 and 21 (7 cows). Therapeutic response was considered complete if there was entire transformation of moist, red, raw, prone-to-bleed, painful surfaces to dry, dark brown, firm, rubbery, keratinacious, non-painful surfaces adherent to underlying pink healthy-appearing skin. […] Another 6 lesions of PDD in 4 cows in herd 4 were reexamined 5 weeks after total surgical excision.

[2] = tested on: lesions of papillomatous digital dermatitis (PDD); assay: Prevalence of recurrent and new PDD lesions at follow-up examination of treated cows; format: in vivo, Holstein cows; details: for Recurrence and new-lesion development (in words): 7-12 weeks after complete response; for New: Cows n / New: Lesions n: lesion at a previously non-affected site; for New: Cows n / New: Lesions n / Recurrent: Cows n / Recurrent: Lesions n: cows that completely responded 7-12 weeks before follow-up; for Recurrent: Cows n / Recurrent: Lesions n: recurrence at a previously responsive affected site
Method: as §1

Compound	No. of cows assessed: Responded [1]	No. of lesions assessed: Responded [1]	Mean therapeutic response time [1] [days]	Incomplete responses, number of cows ([1]; in vivo) [cows]	Recurrence and new-lesion development (in words) [2]	New: Cows n [2]	New: Lesions n [2]	Recurrent: Cows n [2]	Recurrent: Lesions n [2]	Therapeutic response of PDD lesions (in words) ([1]; in vivo)
CO/N=C(\C(=O)N[C@@H]1C(=O)N2C(C(=O)O)=C(CSC(=O)c3ccco3)CS[C@H]12)c1csc(N)n1 [Ceftiofur IM, ceftiofur sodium]	13	41	11.1 ± 4.5	2	Recurrence and new-lesion-development were observed	2	2	4^|	6	–
C=O [Formaldehyde (39%), formadelhyde]	5	8	7	–	–	0	0	0^	0	–
Cl [Hydrochloric acid (35%), hydrochloric acid]	2	3	7	2	New lesions occurred	2	3	0^	0	persistence of small painful deep ulcers
CN(C)[C@@H]1C(O)=C(C(N)=O)C(=O)[C@@]2(O)C(O)=C3C(=O)c4c(O)cccc4[C@@](C)(O)[C@H]3[C@H](O)[C@@H]12 [Oxytetracycline, topical, oxytetracycline]	3	4	7	–	–	–	–	–	–	–
procaine penicillin G [Penicillin G procaine IM]	7	9	8.2 ± 2.5	–	Recurrence and new-lesion-development were observed	2	4	1^|	1	–
